According to patent publication US20050277617A1, “Drugs against articular failure” (KABUSHIKI KAISHA HAYASHIBARA SEIBUTSU KAGAKU KENKYUJO, priority 2000, published 2005):

System: arthritis induced rat
Assay: Arthritis induced by type II collagen immunization in rats; increasing rate of hind foot volume
Format: in vivo
Conditions: for Enhancement of the alleviation effect of amino sugars on arthritis: Experiment 3, saccharide used instead of trehalose in the design of Experiment 1; for Judgment (symbol) of the effect of alleviating arthritis / Relative value of the average of increasing rate of hind foot volume when the average in the control group was regarded as 100: Experiment 1, daily until day 24, GlcN or GlcNAc 100, Ch4S 50, Trehalose 200 mg/kg body weight/day, female Lewis rats
Source text: Thirty-six female Lewis rats, aged 6-weeks, were divided into 12 groups consisting of three rats per group. Glucosamine, N-acetylglucosamine, chondroitin 4-sulfate, and crystalline hydrous trehalose, which were all in a reagent grade, and designated as “test compounds” hereinafter), were respectively dissolved in phosphate buffer saline (described as “PBS” hereinafter), and intraperitoneally injected alone or in an appropriate combination daily to the rats of the group Nos. 1 to 11 at the doses in the following Table 2. As a control, PBS was administrated daily to each rat of the group No. 12 at a dose of 1 ml per day by the same administration route as above. Hereinafter, the day number means a day counted from the starting day of administration. In accordance with the method of inducing arthritis by type II collagen immunization described by K. Terato, in “Biomedical research”, Vol. 3, pp. 495-505, 1982, on day 3, 800 μg/head of a type II collagen from bovine in a reagent grade along with Freund's incomplete adjuvant was administered to the dorsal subcutaneous; and on day 10, a fresh preparation of the same collagen and adjuvant as used above were administered at a dose of about 1/10 of that of on day 3. Test compounds were administered to the rats daily until day 24.
During the term of the above experiment, on day 3 just before the administration of collagen and on day 24 just after the administration of the test compounds, both hind foot volumes of every rat were measured according to the method described by D. T. Walz in “Journal of Experimental Therapy”, Vol. 152, pp. 116-121, 1971. Increasing rate (%) of the total hind foot volume of each rat was calculated by substituting the data for the Formula 1 below. Increasing rate of hind foot volume (%)=[{(Measured volume on day 24)−(Measured volume on day 3)}/(Measured volume on day 3)]×100 Formula 1
The effect of alleviating arthritis for each test compound was judged on the basis of the criterion described in the following Table 1, after calculating the averages of increased rates of hind foot volumes in the rats of the group Nos. 1 to 11 and the relative values of the above averages when the average in the control group was regarded as 100. The results are in Table 2
As a result, the effect of glucosamine or N-acetylglucosamine with trehalose was judged as high (symbol “+”) even with the tested minimum amount of 5 mg/kg body weight/day. […]

| Compound | Enhancement of the alleviation effect of amino sugars on arthritis | Judgment (symbol) of the effect of alleviating arthritis (intraperitoneal) | Relative value of the average of increasing rate of hind foot volume when the average in the control group was regarded as 100 (intraperitoneal) | also measured |
| --- | --- | --- | --- | --- |
| OC[C@H]1O[C@H](O[C@H]2[C@H](O)[C@@H](O)C(O)O[C@@H]2CO)[C@H](O)[C@@H](O)[C@@H]1O (mixture of isomers) [maltose] | no enhanced effect | – | – | – |
| N[C@H]1C(O)O[C@H](CO)[C@@H](O)[C@@H]1O (some centres unmarked) [GlcN, glucosamine] | – | − (67 or more) | 88 | – |
| CC(=O)N[C@H]1C(O)O[C@H](CO)[C@@H](O)[C@@H]1O (some centres unmarked) [GlcNAc, N-acetylglucosamine] | – | − (67 or more) | 89 | – |
| OC[C@H]1O[C@H](O[C@H]2O[C@H](CO)[C@@H](O)[C@H](O)[C@H]2O)[C@H](O)[C@@H](O)[C@@H]1O [Trehalose, trehalose] | – | − (67 or more) | 98 | Increasing rate of hind foot volume compared with the control group (Experiment 1, group No. 6, trehalose alone 200 mg/kg body weight/day, intraperitoneal): No difference |
| COc1ccc2c(c1)c(CC(=O)O)c(C)n2C(=O)c1ccc(Cl)cc1 [indomethacin] | – | – | – | Increasing rate of hind foot volume (3 mg/kg body weight, some rats, data not shown): < 20% |
| OC[C@@H](O)[C@@H](O[C@H]1O[C@H](CO)[C@@H](O)[C@H](O)[C@H]1O)[C@H](O)[C@@H](O)CO [maltitol] | no enhanced effect | – | – | – |
| OC[C@H]1O[C@@H](O[C@H]2O[C@H](CO)[C@@H](O)[C@H](O)[C@H]2O)[C@H](O)[C@@H](O)[C@@H]1O [neotrehalose] | no enhanced effect | – | – | – |
| OC[C@@H](O)[C@@H](O)[C@H](O)[C@@H](O)CO [sorbitol] | no enhanced effect | – | – | – |
| chondroitin 4-sulfate [Ch4S] | – | − (67 or more) | 95 | – |
